Measured values taken from US9938261B2, “Heterocyclic compounds and methods of use thereof” (AMBIT BIOSCIENCES CORPORATION, priority 2011, dated 2018).

Experiments:
[1] = target: T1, PDGFRβ (Homo sapiens, UniProt P09619); assay: Competition binding assay, PDGFRβ Kd; conditions: competition binding
T1 construct: made in house
Procedure, shortened: (§1)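 Phage-fused or HEK-293/DNA-tagged kinase + ligand-coated streptavidin beads + compound, 1 h RT with shaking. Wash, elute with free ligand 30 min RT, qPCR of eluted kinase. Kd: 11-point 3-fold series.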

[2] = target: kinase panel containing either 386 or 392 distinct kinases; assay: Kinase selectivity score S10 from competition binding panel; conditions: 10 μM, panel of 386 or 392 distinct kinases
Procedure, shortened: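 S10 is the number of kinases with percent-of-control under 10, divided by all distinct wild-type kinases tested, from a single 10 μM concentration. Binding measured by qPCR of kinase recovered from ligand-coated beads after 1 h equilibrium at room temperature; kinases were phage fusions or DNA-tagged HEK-293 products.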

[3] = target: T2, CSF1R (Homo sapiens, UniProt P07333); assay: HEK293 CSF1R phosphorylation MSD assay; type: cell-based; parameters: expressed in transfected cells; host or cells: HEK293; conditions: HEK293 cells, M-CSF stimulated CSF1R phosphorylation, MSD; read-out: HEK293 pCSF1R M-CSF MSD:IC50
T2 sequence (P07333 20-972): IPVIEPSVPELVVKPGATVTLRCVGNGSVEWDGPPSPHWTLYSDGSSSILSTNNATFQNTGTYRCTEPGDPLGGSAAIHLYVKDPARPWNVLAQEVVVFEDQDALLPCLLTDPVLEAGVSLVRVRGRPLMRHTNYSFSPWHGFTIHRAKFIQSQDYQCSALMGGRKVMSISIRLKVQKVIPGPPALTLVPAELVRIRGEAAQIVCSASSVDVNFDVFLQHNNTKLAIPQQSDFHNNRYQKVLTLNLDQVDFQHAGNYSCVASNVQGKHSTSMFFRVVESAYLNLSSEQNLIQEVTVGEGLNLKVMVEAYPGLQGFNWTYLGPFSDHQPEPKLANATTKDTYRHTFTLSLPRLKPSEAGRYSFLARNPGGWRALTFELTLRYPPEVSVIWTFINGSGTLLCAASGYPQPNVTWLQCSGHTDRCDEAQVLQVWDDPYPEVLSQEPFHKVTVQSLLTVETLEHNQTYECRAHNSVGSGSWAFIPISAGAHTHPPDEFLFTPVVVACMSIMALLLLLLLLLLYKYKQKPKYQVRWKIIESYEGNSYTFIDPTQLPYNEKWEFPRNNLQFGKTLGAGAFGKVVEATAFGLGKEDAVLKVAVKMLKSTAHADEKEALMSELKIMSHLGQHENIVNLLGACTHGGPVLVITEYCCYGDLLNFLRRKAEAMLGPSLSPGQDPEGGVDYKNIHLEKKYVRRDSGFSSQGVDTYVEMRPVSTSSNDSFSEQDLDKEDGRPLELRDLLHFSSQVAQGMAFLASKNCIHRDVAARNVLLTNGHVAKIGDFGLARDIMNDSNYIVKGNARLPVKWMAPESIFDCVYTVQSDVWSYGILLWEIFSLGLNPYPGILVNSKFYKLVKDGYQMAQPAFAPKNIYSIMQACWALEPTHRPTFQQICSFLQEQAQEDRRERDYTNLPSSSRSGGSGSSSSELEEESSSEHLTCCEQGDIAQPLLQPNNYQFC
Procedure, shortened: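 Ligand-induced CSF1R autophosphorylation was measured by MSD sandwich assay: CSF1R-FKBP from lysates captured via FK506, anti-phosphotyrosine readout. Cells were exposed to compound for 2 h (9-point, half-log, 0.5% DMSO) before 5 min 50 ng/mL M-CSF. Reported IC50 is the mean of duplicate-plate IC50s relative to DMSO control.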

[4] = target: T2, CSF1R; assay: Competition binding assay, CSF1R Kd; parameters: made in house; conditions: competition binding
Procedure, shortened: as §1

[5] = target: T3, KIT (Homo sapiens, UniProt P10721); assay: Competition binding assay, KIT Kd; conditions: competition binding
T3 construct: made in house
T3 sequence (P10721 26-976): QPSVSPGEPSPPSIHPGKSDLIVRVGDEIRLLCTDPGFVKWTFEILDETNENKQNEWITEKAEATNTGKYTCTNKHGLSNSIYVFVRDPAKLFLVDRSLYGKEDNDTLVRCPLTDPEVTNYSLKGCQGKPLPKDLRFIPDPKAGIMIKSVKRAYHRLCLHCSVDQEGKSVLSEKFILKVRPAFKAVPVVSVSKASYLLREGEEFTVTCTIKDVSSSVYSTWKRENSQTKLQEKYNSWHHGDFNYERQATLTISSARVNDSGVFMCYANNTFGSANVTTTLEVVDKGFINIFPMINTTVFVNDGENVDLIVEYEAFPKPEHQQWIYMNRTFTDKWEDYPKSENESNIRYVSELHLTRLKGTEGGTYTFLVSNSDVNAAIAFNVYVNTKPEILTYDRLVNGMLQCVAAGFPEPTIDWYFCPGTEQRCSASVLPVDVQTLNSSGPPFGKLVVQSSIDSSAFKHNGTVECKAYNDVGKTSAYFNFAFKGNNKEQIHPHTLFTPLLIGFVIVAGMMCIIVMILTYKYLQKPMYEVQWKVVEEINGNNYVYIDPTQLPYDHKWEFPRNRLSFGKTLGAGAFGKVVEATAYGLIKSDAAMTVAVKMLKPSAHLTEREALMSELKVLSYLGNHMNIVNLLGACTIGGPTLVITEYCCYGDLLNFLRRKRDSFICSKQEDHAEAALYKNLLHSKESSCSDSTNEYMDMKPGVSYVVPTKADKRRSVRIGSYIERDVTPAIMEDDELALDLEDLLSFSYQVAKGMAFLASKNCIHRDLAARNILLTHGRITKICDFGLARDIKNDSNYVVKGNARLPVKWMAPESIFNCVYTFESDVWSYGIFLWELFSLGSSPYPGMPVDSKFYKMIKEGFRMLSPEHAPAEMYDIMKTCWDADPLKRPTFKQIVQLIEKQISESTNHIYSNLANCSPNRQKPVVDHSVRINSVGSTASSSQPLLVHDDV
Procedure, shortened: as §1

T1 sequence (P09619 33-1106): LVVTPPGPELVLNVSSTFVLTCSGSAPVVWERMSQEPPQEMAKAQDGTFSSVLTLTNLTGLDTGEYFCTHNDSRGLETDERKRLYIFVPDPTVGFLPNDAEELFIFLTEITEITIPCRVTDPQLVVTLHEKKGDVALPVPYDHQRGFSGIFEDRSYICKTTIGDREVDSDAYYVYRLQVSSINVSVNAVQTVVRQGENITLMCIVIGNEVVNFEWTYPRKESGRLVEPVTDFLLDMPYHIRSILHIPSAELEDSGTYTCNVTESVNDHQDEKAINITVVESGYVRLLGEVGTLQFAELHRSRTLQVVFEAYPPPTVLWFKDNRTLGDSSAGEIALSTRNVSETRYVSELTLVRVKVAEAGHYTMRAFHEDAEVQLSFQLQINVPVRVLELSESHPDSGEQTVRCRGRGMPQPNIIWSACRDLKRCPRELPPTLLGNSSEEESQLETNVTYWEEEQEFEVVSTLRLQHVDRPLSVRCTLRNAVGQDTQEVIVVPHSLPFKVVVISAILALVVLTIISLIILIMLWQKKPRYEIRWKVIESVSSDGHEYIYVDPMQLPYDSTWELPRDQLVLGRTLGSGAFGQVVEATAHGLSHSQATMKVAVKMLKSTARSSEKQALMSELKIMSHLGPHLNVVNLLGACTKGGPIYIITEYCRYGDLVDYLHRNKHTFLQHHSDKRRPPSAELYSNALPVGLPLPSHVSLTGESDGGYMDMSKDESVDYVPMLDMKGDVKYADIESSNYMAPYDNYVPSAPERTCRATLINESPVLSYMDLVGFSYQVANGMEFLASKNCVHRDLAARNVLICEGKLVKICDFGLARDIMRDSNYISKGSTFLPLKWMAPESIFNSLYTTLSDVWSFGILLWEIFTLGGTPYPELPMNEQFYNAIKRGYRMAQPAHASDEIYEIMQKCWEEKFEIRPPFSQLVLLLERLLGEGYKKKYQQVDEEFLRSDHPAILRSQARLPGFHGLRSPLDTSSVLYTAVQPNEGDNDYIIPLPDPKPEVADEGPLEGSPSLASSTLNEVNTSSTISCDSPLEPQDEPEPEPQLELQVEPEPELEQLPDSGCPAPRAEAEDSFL

Structure (SMILES) | Kd [1] [nM] | Kinase specificity S(10) [2] | IC50 [3] [nM] | Kd [4] [nM] | Kd [5] [nM]
O[C@@H]1CCCC[C@H]1Nc1nc2ccc(Cn3cnc4cc(I)cnc43)cc2s1 [Example 146, (1R,2R)-2-((6-((6-iodo-3H-imidazo[4,5-b]pyridin-3-yl)methyl)benzo[d]thiazol-2-yl)amino)cyclohexanol] | ≤ 50 | B (0.01<B≤0.02) | ≤ 50 | 5 to 20 | ≤ 100
Oc1ccc2c(c1)ncn2Cc1ccc2nc(N[C@@H]3CCCC[C@H]3O)sc2c1 [Example 147, 1-((2-(((1R,2R)-2-hydroxycyclohexyl)amino)benzo[d]thiazol-6-yl)methyl)-1H-benzo[d]imidazol-5-ol] | ≤ 50 | A (A≤0.01) | ≤ 50 | ≤ 5 | ≤ 100
O[C@@H]1CCCC[C@H]1Nc1nc2ccc(Cn3cnc4cc(F)cc(F)c43)cc2s1 [Example 148, (1R,2R)-2-((6-((5,7-difluoro-1H-benzo[d]imidazol-1-yl)methyl)benzo[d]thiazol-2-yl)amino)cyclohexanol] | 50 to 500 | A (A≤0.01) | 50 to 200 | ≤ 5 | ≤ 100
O[C@@H]1CCCC[C@H]1Nc1nc2ccc(Cn3cnc4cc(OC(F)(F)F)ccc43)cc2s1 [Example 149, (1R,2R)-2-((6-((5-(trifluoromethoxy)-1H-benzo[d]imidazol-1-yl)methyl)benzo[d]thiazol-2-yl)amino)cyclohexanol] | ≤ 50 | A (A≤0.01) | 200 to 500 | 5 to 20 | 100 to 500
COc1ccc2ncc(Cc3ccc4nc(N[C@@H]5CCCC[C@H]5O)sc4c3)n2n1 [Example 150, (1R,2R)-2-((6-((6-methoxyimidazo[1,2-b]pyridazin-3-yl)methyl)benzo[d]thiazol-2-yl)amino)cyclohexanol] | 50 to 500 | B (0.01<B≤0.02) | 50 to 200 | ≤ 5 | ≤ 100
COc1ccc2c(c1)ncn2Cc1ccc2nc(N[C@@H]3CCCC[C@H]3O)oc2c1 [Example 151, (1R,2R)-2-((6-((5-methoxy-1H-benzo[d]imidazol-1-yl)methyl)benzo[d]oxazol-2-yl)amino)cyclohexanol] | ≤ 50 | B (0.01<B≤0.02) | ≤ 50 | 5 to 20 | ≤ 100
COc1ccc2ncn(Cc3ccc4nc(N[C@@H]5CCCC[C@H]5O)oc4c3)c2c1 [Example 152, (1R,2R)-2-((6-((6-methoxy-1H-benzo[d]imidazol-1-yl)methyl)benzo[d]oxazol-2-yl)amino)cyclohexanol] | 50 to 500 | B (0.01<B≤0.02) | ≤ 50 | 5 to 20 | ≤ 100
COCCOc1ccn2c(Cc3ccc4nc(N[C@@H]5CCCC[C@H]5O)sc4c3)cnc2c1 [Example 153, (1R,2R)-2-((6-((7-(2-methoxyethoxy)imidazo[1,2-a]pyridin-3-yl)methyl)benzo[d]thiazol-2-yl)amino)cyclohexanol] | 50 to 500 | A (A≤0.01) | ≤ 50 | 5 to 20 | 500 to 2000
O[C@@H]1CCCC[C@H]1Nc1nc2cc(F)c(Cn3cnc4cccnc43)cc2s1 [Example 154, (1R,2R)-2-((6-((3H-imidazo[4,5-b]pyridin-3-yl)methyl)-5-fluorobenzo[d]thiazol-2-yl)amino)cyclohexanol] | 500 to 2000 | A (A≤0.01) | 50 to 200 | 5 to 20 | 500 to 2000
O[C@@H]1CCCC[C@H]1Nc1nc2ccc(Cc3cnc4ccc(N5CCOCC5)nn34)cc2s1 [Example 155, (1R,2R)-2-((6-((6-morpholinoimidazo[1,2-b]pyridazin-3-yl)methyl)benzo[d]thiazol-2-yl)amino)cyclohexanol] | 50 to 500 | B (0.01<B≤0.02) | ≤ 50 | ≤ 5 | ≤ 100
O[C@@H]1CCCC[C@H]1Nc1nc2c(Cl)cc(Cc3cnc4ccc(N5CCOCC5)nn34)cc2s1 [Example 156, (1R,2R)-2-((4-chloro-6-((6-morpholinoimidazo[1,2-b]pyridazin-3-yl)methyl)benzo[d]thiazol-2-yl)amino)cyclohexanol] | 500 to 2000 | A (A≤0.01) | 200 to 500 | 5 to 20 | > 2000
O[C@@H]1CCCC[C@H]1Nc1nc2ccc(Cc3cnc4sccn34)cc2s1 [Example 157, (1R,2R)-2-((6-(imidazo[2,1-b]thiazol-5-ylmethyl)benzo[d]thiazol-2-yl)amino)cyclohexanol] | 500 to 2000 | A (A≤0.01) | > 500 | 20 to 50 | > 2000
O[C@@H]1CCCC[C@H]1Nc1nc2ccc(Cc3cnc4ccc(Cl)nn34)cc2s1 [Example 158, (1R,2R)-2-((6-((6-chloroimidazo[1,2-b]pyridazin-3-yl)methyl)benzo[d]thiazol-2-yl)amino)cyclohexanol] | ≤ 50 | B (0.01<B≤0.02) | ≤ 50 | ≤ 5 | ≤ 100
O[C@@H]1CCCC[C@H]1Nc1nc2ccc(Cc3cnc4ccc(-n5cccn5)cn34)cc2s1 [Example 159, (1R,2R)-2-((6-((6-(1H-pyrazol-1-yl)imidazo[1,2-a]pyridin-3-yl)methyl)benzo[d]thiazol-2-yl)amino)cyclohexanol] | 500 to 2000 | A (A≤0.01) | 200 to 500 | 5 to 20 | 500 to 2000
O[C@@H]1CCCC[C@H]1Nc1nc2ccc(Cn3cnc4cc(-n5cccn5)ccc43)cc2s1 [Example 160, (1R,2R)-2-((6-((5-(1H-pyrazol-1-yl)-1H-benzo[d]imidazol-1-yl)methyl)benzo[d]thiazol-2-yl)amino)cyclohexanol] | ≤ 50 | A (A≤0.01) | ≤ 50 | ≤ 5 | ≤ 100
O[C@@H]1CCCC[C@H]1Nc1nc2ccc(Cn3cnc4cc(-n5cncn5)ccc43)cc2s1 [Example 161, (1R,2R)-2-((6-((5-(1H-1,2,4-triazol-1-yl)-1H-benzo[d]imidazol-1-yl)methyl)benzo[d]thiazol-2-yl)amino)cyclohexanol] | 50 to 500 | A (A≤0.01) | ≤ 50 | 5 to 20 | 100 to 500
O[C@H]1CCCC[C@H]1Nc1nc2ccc(Cn3cnc4cc(F)cnc43)cc2s1 [Example 162, (1S,2R)-2-((6-((6-fluoro-3H-imidazo[4,5-b]pyridin-3-yl)methyl)benzo[d]thiazol-2-yl)amino)cyclohexanol] | 50 to 500 | A (A≤0.01) | 50 to 200 | ≤ 5 | 100 to 500
O[C@H]1CC[C@H](Nc2nc3ccc(Cn4cnc5cc(F)cnc54)cc3s2)CC1 [Example 163, trans-4-((6-((6-fluoro-3H-imidazo[4,5-b]pyridin-3-yl)methyl)benzo[d]thiazol-2-yl)amino)cyclohexanol] | 50 to 500 | A (A≤0.01) | > 500 | > 50 | 100 to 500
O[C@@H]1CCCC[C@H]1Nc1nc2ccc(Cn3cnc4cccnc43)c(F)c2s1 [Example 164, (1R,2R)-2-((6-((3H-imidazo[4,5-b]pyridin-3-yl)methyl)-7-fluorobenzo[d]thiazol-2-yl)amino)cyclohexanol] | 500 to 2000 | A (A≤0.01) | > 500 | 5 to 20 | > 2000
COc1ccc2ncc(Cc3ccc4nc(N[C@@H]5CCCC[C@H]5O)sc4c3)n2c1 [Example 165, (1R,2R)-2-((6-((6-methoxyimidazo[1,2-a]pyridin-3-yl)methyl)benzo[d]thiazol-2-yl)amino)cyclohexanol] | 500 to 2000 | A (A≤0.01) | > 500 | 5 to 20 | 500 to 2000
O[C@@H]1CCCC[C@H]1Nc1nc2c(Br)cc(Cn3cnc4cccnc43)cc2s1 [Example 166, (1R,2R)-2-((6-((3H-imidazo[4,5-b]pyridin-3-yl)methyl)-4-bromobenzo[d]thiazol-2-yl)amino)cyclohexanol] | > 2000 | A (A≤0.01) | > 500 | 5 to 20 | 500 to 2000
O[C@@H]1CCCC[C@H]1Nc1nc2ccc(Cc3cnc4cc(-n5cccn5)ccn34)cc2s1 [Example 167, (1R,2R)-2-((6-((7-(1H-pyrazol-1-yl)imidazo[1,2-a]pyridin-3-yl)methyl)benzo[d]thiazol-2-yl)amino)cyclohexanol] | 50 to 500 | A (A≤0.01) | ≤ 50 | ≤ 5 | 100 to 500
O[C@@H]1CCCC[C@H]1Nc1nc2c(F)cc(Cn3cnc4cccnc43)c(F)c2s1 [Example 168, (1R,2R)-2-((6-((3H-imidazo[4,5-b]pyridin-3-yl)methyl)-4,7-difluorobenzo[d]thiazol-2-yl)amino)cyclohexanol] | > 2000 | A (A≤0.01) | > 500 | 5 to 20 | > 2000
